In ChEMBL document CHEMBL1145416, “Design, synthesis, and biological evaluation of pyrazinones containing novel P1 needles as inhibitors of TF/VIIa” (Bioorg Med Chem Lett, 2007):

Tests used:
[1] = molecular target: Trypsin (Homo sapiens, UniProt P07477+P07478+P35030); test: Inhibition of trypsin; assay type: protein assay
[2] = molecular target: Coagulation factor X (Homo sapiens, UniProt P00742); test: Inhibition of factor 10a
[3] = molecular target: T1, Coagulation factor VII (Homo sapiens, UniProt P08709); test: Inhibition of factor 7a
T1 sequence (P08709 whole entry): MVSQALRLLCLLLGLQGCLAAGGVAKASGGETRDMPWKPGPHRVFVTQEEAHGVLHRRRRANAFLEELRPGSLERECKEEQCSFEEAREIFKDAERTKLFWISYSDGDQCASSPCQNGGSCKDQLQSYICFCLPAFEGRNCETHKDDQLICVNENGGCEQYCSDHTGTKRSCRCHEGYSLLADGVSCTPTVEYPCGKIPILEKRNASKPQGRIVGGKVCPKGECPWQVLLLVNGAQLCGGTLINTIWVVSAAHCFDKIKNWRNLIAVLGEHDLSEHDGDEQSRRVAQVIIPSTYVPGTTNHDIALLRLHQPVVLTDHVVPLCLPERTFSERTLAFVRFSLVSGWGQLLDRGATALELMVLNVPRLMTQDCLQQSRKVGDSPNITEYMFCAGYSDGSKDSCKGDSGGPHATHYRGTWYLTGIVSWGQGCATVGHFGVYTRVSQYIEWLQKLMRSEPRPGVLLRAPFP

[4] = molecular target: Prothrombin (Homo sapiens, UniProt P00734); test: Inhibition of factor 2a

Coagulation factor X, sequence (P00742 41-179 limits assumed): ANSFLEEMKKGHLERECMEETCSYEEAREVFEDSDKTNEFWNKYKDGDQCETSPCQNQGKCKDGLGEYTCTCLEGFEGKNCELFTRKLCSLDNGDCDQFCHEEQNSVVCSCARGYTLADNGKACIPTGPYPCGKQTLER
Coagulation factor X, sequence (P00742 235-488 limits assumed): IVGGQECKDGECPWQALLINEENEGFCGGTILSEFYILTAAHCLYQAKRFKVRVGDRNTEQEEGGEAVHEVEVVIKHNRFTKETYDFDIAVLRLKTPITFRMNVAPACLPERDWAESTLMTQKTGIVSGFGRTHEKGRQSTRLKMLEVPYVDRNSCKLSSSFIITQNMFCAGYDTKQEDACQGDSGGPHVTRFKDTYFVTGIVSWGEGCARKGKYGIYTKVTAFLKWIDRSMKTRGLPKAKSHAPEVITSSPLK

| Compound | IC50 [1] | IC50 [2] | IC50 [3] | IC50 [4] |
| --- | --- | --- | --- | --- |
| N=C(N)c1ccc(CNC(=O)Cn2c(-c3cccc(N)c3)c(Cl)nc(NC3CCC3)c2=O)cc1O | 7.55 µM | > 100 µM | 0.19 µM | > 100 µM |
| N=C(N)c1ccc(CNC(=O)Cn2c(-c3cccc(N)c3)c(Cl)nc(NC3CCC3)c2=O)c(C(F)(F)F)c1 | 0.23 µM | > 30 µM | 0.79 µM | > 30 µM |
| N=C(N)c1c(O)c(F)c(CNC(=O)Cn2c(-c3cccc(N)c3)c(Cl)nc(NC3CCC3)c2=O)c(F)c1F | – | > 100 µM | 0.11 µM | > 100 µM |
| N=C(N)c1c(F)c(F)c(CNC(=O)Cn2c(-c3cccc(N)c3)c(Cl)nc(NC3CCC3)c2=O)c(F)c1F | – | > 30 µM | 5.48 µM | > 100 µM |
| N/N=C(/N)c1ccc(CNC(=O)Cn2c(-c3cccc(N)c3)c(Cl)nc(NC3CCC3)c2=O)cc1 | – | > 100 µM | – | > 100 µM |
| Nc1cccc(-c2c(Cl)nc(NC3CCC3)c(=O)n2CC(=O)NCc2ccc3c(N)noc3c2)c1 | > 30 µM | > 30 µM | – | > 30 µM |
| N=C(N)c1ccc(C(=O)NCCn2c(-c3cccc(N)c3)c(Cl)nc(NC3CCC3)c2=O)cc1 | – | > 30 µM | – | – |
| Nc1cccc(-c2c(Cl)nc(NC3CCC3)c(=O)n2CC(=O)NCc2ccc3c(N)nsc3c2)c1 | – | > 30 µM | – | – |
| N=c1[nH][nH]c(=O)c2cc(CNC(=O)Cn3c(-c4cccc(N)c4)c(Cl)nc(NC4CCC4)c3=O)ccc12 | – | > 30 µM | > 30 µM | > 30 µM |
| Nc1cccc(-c2c(Cl)nc(NC3CCC3)c(=O)n2CC(=O)NCc2ccc3c(N)nccc3c2)c1 | > 30 µM | > 30 µM | > 30 µM | > 30 µM |
| Nc1cccc(-c2c(Cl)nc(NC3CCC3)c(=O)n2CC(=O)NCCc2cnc[nH]2)c1 | > 30 µM | > 30 µM | > 30 µM | > 30 µM |
| Nc1cccc(-c2c(Cl)nc(NC3CCC3)c(=O)n2CC(=O)NCCc2cnc(N)[nH]2)c1 | 6.2 µM | > 30 µM | > 30 µM | > 30 µM |
| NC1=NCCSc2cc(CNC(=O)Cn3c(-c4cccc(N)c4)c(Cl)nc(NC4CCC4)c3=O)ccc21 | > 30 µM | > 30 µM | > 30 µM | > 30 µM |
| Nc1cccc(-c2c(Cl)nc(NC3CCC3)c(=O)n2CC(=O)NCc2ccnc(N)n2)c1 | – | > 30 µM | > 30 µM | > 30 µM |
| N=C(N)c1ccc(S(=O)(=O)NCCn2c(-c3cccc(N)c3)c(Cl)nc(NC3CCC3)c2=O)cc1 | 9.1 µM | > 30 µM | 30 µM | > 30 µM |
| Nc1cccc(-c2c(Cl)nc(NC3CCC3)c(=O)n2CC(=O)NCc2ccccc2)c1 | – | 0.04 µM | 0.02 µM | 10.6 µM |
| N=C(N)c1ccc(CNC(=O)Cn2c(-c3cccc(N)c3)c(Cl)nc(NC3CCC3)c2=O)c(F)c1 | > 30 µM | 0.05 µM | 0.04 µM | – |
| N=C(N)c1ccc(CNC(=O)Cn2c(-c3cccc(N)c3)c(Cl)nc(NC3CCC3)c2=O)cc1F | – | > 30 µM | – | > 30 µM |
